Values after ≈ are worked out from the molar mass of the structure shown.
What was measured:
[1] = test system: Mycobacteroides abscessus; assay: Antimycobacterial activity against Mycobacterium abscessus ATCC 19977 assessed as reduction in bacterial growth by microplate Alamar blue assay; assay type: functional
[2] = Selectivity index, ratio of IC50 for cytotoxicity against African green monkey Vero cells to MIC for antimycobacterial activity against Mycobacterium tuberculosis H37Rv ATCC 27294; assay type: toxicity, cell-based; conditions: read-out: Selectivity Index
[3] = Binding affinity to full length Mycobacterium tuberculosis ClpC1 assessed as dissociation constant by SPR analysis
[4] = Binding affinity to N-terminal Mycobacterium tuberculosis ClpC1 assessed as dissociation constant by SPR analysis
[5] = Cytotoxicity against African green monkey Vero cells; assay type: toxicity, cell-based; conditions: African green monkey (Chlorocebus sabaeus)
[6] = test system: Mycobacterium tuberculosis; assay: Antimycobacterial activity against Mycobacterium tuberculosis H37Rv ATCC 27294 assessed as reduction in bacterial growth by microplate alamar blue assay; assay type: functional
Mycobacterium avium = assay: Antimycobacterial activity against Mycobacterium avium assessed as reduction in bacterial growth; assay type: functional

SMILES | MIC [1] | selectivity ratio [2] | Kd [3] | Kd [4] | IC50 [5] | MIC [6] | MIC (Mycobacterium avium)
C/C=C/C[C@@H]1NC(=O)[C@H](CC(C)C)N2C(=O)[C@H](C[C@@H](C)[C@@H]2OCCCC)N(C)C(=O)[C@H](C)NC(=O)[C@H](Cc2ccc(O)c([N+](=O)[O-])c2)NC(=O)[C@H](CC(C)C)N(C)C(=O)[C@H](Cc2cn(C(C)(C)[C@H](O)CCl)c3ccccc23)NC1=O | 9.4 µM (≈ 10.7 µg/mL) | 120 | 720 nM | 600 nM | 95 µM | 0.77 µM (≈ 0.874 µg/mL) | > 10 µM
C/C=C/C[C@@H]1NC(=O)[C@H](CC(C)C)N2C=C(C)C[C@@H](C2=O)N(C)C(=O)[C@H](C)NC(=O)[C@H](Cc2ccc(O)c([N+](=O)[O-])c2)NC(=O)[C@H](CC(C)C)N(C)C(=O)[C@H](Cc2cn(C(C)(C)[C@H]3CO3)c3ccccc23)NC1=O | 0.58 µM (≈ 0.594 µg/mL) | > 33000 | 60 nM | 50 nM | > 100 µM | 0.003 µM (≈ 0.00307 µg/mL) | 4.1 µM (≈ 4.2 µg/mL)
C/C=C/C[C@@H]1NC(=O)[C@H](CC(C)C)N2C(=O)[C@H](CC(C)[C@H]2OC)N(C)C(=O)[C@H](C)NC(=O)[C@H](Cc2ccc(OC)c([N+](=O)[O-])c2)NC(=O)[C@H](CC(C)C)N(C)C(=O)[C@H](Cc2cn(C(C)(C)[C@H](O)COC)c3ccccc23)NC1=O (stereo partly drawn) | 0.52 µM (≈ 0.573 µg/mL) | 3600 | 40 nM | 37 nM | 83 µM | 0.023 µM (≈ 0.0254 µg/mL) | 4.5 µM (≈ 4.96 µg/mL)
C/C=C/C[C@@H]1NC(=O)[C@H](CC(C)C)N2C=C(C)C[C@@H](C2=O)N(C)C(=O)[C@H](C)NC(=O)[C@H](Cc2ccc3oc(=O)[nH]c3c2)NC(=O)[C@H](CC(C)C)N(C)C(=O)[C@H](Cc2cn(C(C)(C)[C@H](O)CCl)c3ccccc23)NC1=O | 2.3 µM (≈ 2.43 µg/mL) | > 830 | 510 nM | 430 nM | > 100 µM | 0.12 µM (≈ 0.127 µg/mL) | > 10 µM
C/C=C/C[C@@H]1NC(=O)[C@H](CC(C)C)N2C(=O)[C@H](CC(C)[C@H]2OC)N(C)C(=O)[C@H](C)NC(=O)[C@H](Cc2ccc(O)c([N+](=O)[O-])c2)NC(=O)[C@H](CC(C)C)N(C)C(=O)[C@H](Cc2cn(C(C)(C)[C@H](O)COC)c3ccccc23)NC1=O (stereo partly drawn) | 0.11 µM (≈ 0.12 µg/mL) | > 13000 | 72 nM | 75 nM | > 100 µM | 0.008 µM (≈ 0.00871 µg/mL) | 0.4 µM (≈ 0.435 µg/mL)
C/C=C/C[C@@H]1NC(=O)[C@H](CC(C)C)N2C(=O)[C@H](C[C@H](C)[C@H]2OCC)N(C)C(=O)[C@H](C)NC(=O)[C@H](Cc2ccc(O)c([N+](=O)[O-])c2)NC(=O)[C@H](CC(C)C)N(C)C(=O)[C@H](Cc2cn(C(C)(C)[C@H](O)CCl)c3ccccc23)NC1=O | 0.49 µM (≈ 0.542 µg/mL) | > 19000 | 87 nM | 11 nM | > 100 µM | 0.005 µM (≈ 0.00553 µg/mL) | 2.2 µM (≈ 2.43 µg/mL)
C/C=C/C[C@@H]1NC(=O)[C@H](CC(C)C)N2C=C(C)C[C@@H](C2=O)N(C)C(=O)[C@H](C)NC(=O)[C@H](Cc2ccc3ocnc3c2)NC(=O)[C@H](CC(C)C)N(C)C(=O)[C@H](Cc2cn(C(C)(C)[C@H](O)CCl)c3ccccc23)NC1=O | 2.4 µM (≈ 2.5 µg/mL) | > 830 | 430 nM | 300 nM | > 100 µM | 0.12 µM (≈ 0.125 µg/mL) | > 10 µM
C/C=C/C[C@@H]1NC(=O)[C@H](CC(C)C)N2C=C(C)C[C@@H](C2=O)N(C)C(=O)[C@H](C)NC(=O)[C@H](Cc2ccc(OC(=O)c3ccccc3)c([N+](=O)[O-])c2)NC(=O)[C@H](CC(C)C)N(C)C(=O)[C@H](Cc2cn(C(C)(C)[C@@H](CCl)OC(=O)c3ccccc3)c3ccccc23)NC1=O | > 10 µM | > 220 | 1100 nM | 1400 nM | > 100 µM | 0.45 µM (≈ 0.571 µg/mL) | > 10 µM
C/C=C/C[C@@H]1NC(=O)[C@H](CC(C)C)N2C=C(C)C[C@@H](C2=O)N(C)C(=O)[C@H](C)NC(=O)[C@H](Cc2ccc(O)c([N+](=O)[O-])c2)NC(=O)[C@H](CC(C)C)N(C)C(=O)[C@H](Cc2cn(C(C)(C)[C@H](O)CBr)c3ccccc23)NC1=O | 0.57 µM (≈ 0.63 µg/mL) | > 32000 | 350 nM | 260 nM | > 100 µM | 0.003 µM (≈ 0.00332 µg/mL) | 1.1 µM (≈ 1.22 µg/mL)
C/C=C/C[C@@H]1NC(=O)[C@H](CC(C)C)N2C=C(C)C[C@@H](C2=O)N(C)C(=O)[C@H](C)NC(=O)[C@H](Cc2ccc(O)c(NC(=O)CCl)c2)NC(=O)[C@H](CC(C)C)N(C)C(=O)[C@H](Cc2cn(C(C)(C)[C@H](O)CCl)c3ccccc23)NC1=O | 2.2 µM (≈ 2.44 µg/mL) | > 1000 | 310 nM | 220 nM | > 100 µM | 0.098 µM (≈ 0.109 µg/mL) | > 10 µM
C/C=C/C[C@@H]1NC(=O)[C@H](CC(C)C)N2C(=O)[C@H](CC(C)[C@H]2OC)N(C)C(=O)[C@H](C)NC(=O)[C@H](Cc2ccc(OC(C)=O)c([N+](=O)[O-])c2)NC(=O)[C@H](CC(C)C)N(C)C(=O)[C@H](Cc2cn(C(C)(C)[C@H](O)CCl)c3ccccc23)NC1=O (stereo partly drawn) | 0.21 µM (≈ 0.238 µg/mL) | > 20000 | 42 nM | 38 nM | > 100 µM | 0.005 µM (≈ 0.00567 µg/mL) | 0.21 µM (≈ 0.238 µg/mL)
C/C=C/C[C@@H]1NC(=O)[C@H](CC(C)C)N2C(=O)[C@H](CC(C)[C@H]2OC)N(C)C(=O)[C@H](C)NC(=O)[C@H](Cc2ccc(OC(C)=O)c([N+](=O)[O-])c2)NC(=O)[C@H](CC(C)C)N(C)C(=O)[C@H](Cc2cn(C(C)(C)[C@H]3CO3)c3ccccc23)NC1=O (stereo partly drawn) | 0.13 µM (≈ 0.143 µg/mL) | > 71000 | 44 nM | 40 nM | > 100 µM | 0.001 µM (≈ 0.0011 µg/mL) | 0.14 µM (≈ 0.154 µg/mL)
C/C=C/C[C@@H]1NC(=O)[C@H](CC(C)C)N2C(=O)[C@H](CC(C)[C@H]2OC)N(C)C(=O)[C@H](C)NC(=O)[C@H](Cc2ccc(O)c([N+](=O)[O-])c2)NC(=O)[C@H](CC(C)C)N(C)C(=O)[C@H](Cc2cn(C(C)(C)[C@H](O)CCl)c3ccccc23)NC1=O (stereo partly drawn) | 0.25 µM (≈ 0.273 µg/mL) | > 20000 | 96 nM | 66 nM | > 100 µM | 0.005 µM (≈ 0.00546 µg/mL) | 0.4 µM (≈ 0.437 µg/mL)
C/C=C/C[C@@H]1NC(=O)[C@H](CC(C)C)N2C(=O)[C@H](CC(C)[C@H]2O)N(C)C(=O)[C@H](C)NC(=O)[C@H](Cc2ccc(OC)c([N+](=O)[O-])c2)NC(=O)[C@H](CC(C)C)N(C)C(=O)[C@H](Cc2cn(C(C)(C)[C@H]3CO3)c3ccccc23)N(C)C1=O (stereo partly drawn) | 0.58 µM (≈ 0.621 µg/mL) | > 1900 | 130 nM | 120 nM | > 100 µM | 0.054 µM (≈ 0.0578 µg/mL) | 9 µM (≈ 9.63 µg/mL)

Reference: ChEMBL document CHEMBL6177961, “Structure-Based Analysis of Semisynthetic Anti-TB Rufomycin Analogues” (J Nat Prod, 2025)
